In US7517902B2, “Substituted indazoles, compositions containing the same, and the preparation and use thereof” (Aventis Pharma S.A., priority 2004, dated 2009):

These compounds were tested against T1, CDK4/cyclin D1 kinase complex (Homo sapiens, UniProt P11802) (assay: CDK4/cyclinD1 Flashplate assay in 96-well format). Conditions: read-out: IC 50 CDK4.
T1 construct: HA (Hemagglutinin tag) (C); made in house; host or cells: Sf9 insect cells (baculovirus co-infection)
Assay type: biochemical
Experimental: Purification of the CDK4-HA/cyclin D1-(His)6 complex by IMAC (Immobilized Metal Affinity Chromatography):
Two recombinant baculoviruses carrying the human sequences coding respectively for CDK4-HA (C-terminal fusion with the Hemagglutinin tag) and for cyclin D1-(His)6 are used to co-infect Sf9 insect cells. Sixty hours after the beginning of co-infection, the cells are harvested by centrifugation and then frozen at −20° C. until their use. After thawing in buffer A (HEPES 200 mM pH 7.0, NaCl 50 mM, MgCl2 2 mM, imidazole 25 mM, TCEP 1 mM, glycerol 10% (w/v), NaF 1 mM, Na3VO4 1 mM), stirring at 4° C. for 1 h, and centrifugation, the complex present in the lysis supernatant is purified by affinity chromatography on nickel (IMAC) and stored at −80° C.
CDK4/cyclinD1 Flashplate Assay in 96-Well Format.
An assay in 96-well “Flashplate” (scintillation plate) plates coated with streptavidin is used to evaluate the inhibition of the CDK4/cyclin D1 kinase complex by the products of the invention. To perform this test, the biotinylated peptide substrate, a fragment of the pRb protein, (biotinyl-[…]-amide), is dissolved at a concentration of 2 mM in kinase buffer (HEPES/NaOH 50 mM, NaCl 1 mM, MgCl2 5 mM, pH=7.5) to form a stock solution, which is stored at −20° C. in the form of 110 μl aliquots. On the day of the experiment, an aliquot of this solution is thawed and diluted in kinase buffer containing 1 mM of dithiothreitol, added at the time of use, so as to give a final peptide concentration of 2.571 μM. seventy μl of this solution are deposited in each well of the Flashplate plate, to give a final substrate concentration of 1.8 μM during the enzymatic reaction, which is performed in a final volume of 100 μl (cf. below). Intermediate dilutions of inhibitors (products of the invention) at various concentrations are prepared in DMSO from 10 mM stock solutions in separate tubes. In this way dilutions at 1000 μM, 333.3 μM, 111.1 μM, 37.03 μM, 12.35 μM, 4.11 μM and 1.37 μM are produced. One μl of each of these solutions (or 1 μl of DMSO for the controls) is subsequently transferred into the wells of the assay plate. To each well there is subsequently added 19 μl of a solution of a mixture of adenosine triphosphate (ATP) and ATPγ^33P in the kinase buffer at a concentration of 5.26 μM of total ATP and 78.9 μCi/ml of ^33P. The enzymatic reaction is triggered by adding 10 μl per well of a solution of CDK4/cyclin D1 complex at 250 nM in the kinase buffer, containing 1 mM of dithiothreitol (or 10 μl of kinase buffer containing 1 mM of dithiothreitol for the reaction blanks). At the end of the various additions, the final volume in each well is 100 μl, the final substrate concentration is 1.8 μM, the final inhibitor concentrations are 10 μM, 3.33 μM, 1.11 μM, 0.37 μM, 0.123 μM, 0.041 μM and 0.014 μM (depending on the concentration of the intermediate dilution), the final ATP concentration is 1 μM, the final amount of ^33P is 1.5 μCi/well, and the final concentration of CDK4/cyclin D1 complex is 25 nM.
After all of the reagents have been added, the assay plate is incubated at 30° C. with orbital stirring at 650 rpm. Following incubation, the plate is washed three times with 300 μl per well of PBS buffer (phosphate buffered saline, pH=7.4 with neither calcium nor magnesium, reference 10010-015, Gibco BRL). The incorporation of ^33P into the substrate peptide is measured by scintillation counting using a Packard Topcount.NXT instrument. The inhibitory activity of the products of the invention is evaluated by determining the concentration of inhibitor resulting in a 50% reduction in the enzymatic activity (IC50).

T1 sequence (P11802 whole entry): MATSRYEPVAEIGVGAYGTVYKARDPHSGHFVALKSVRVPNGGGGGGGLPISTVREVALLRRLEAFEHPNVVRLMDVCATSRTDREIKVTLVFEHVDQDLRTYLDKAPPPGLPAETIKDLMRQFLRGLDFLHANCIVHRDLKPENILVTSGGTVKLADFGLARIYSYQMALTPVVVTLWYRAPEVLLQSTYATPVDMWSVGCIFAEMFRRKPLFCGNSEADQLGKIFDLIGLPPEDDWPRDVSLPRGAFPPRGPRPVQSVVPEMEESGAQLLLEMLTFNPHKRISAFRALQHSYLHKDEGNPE
T1 sequence (P24385 whole entry partner): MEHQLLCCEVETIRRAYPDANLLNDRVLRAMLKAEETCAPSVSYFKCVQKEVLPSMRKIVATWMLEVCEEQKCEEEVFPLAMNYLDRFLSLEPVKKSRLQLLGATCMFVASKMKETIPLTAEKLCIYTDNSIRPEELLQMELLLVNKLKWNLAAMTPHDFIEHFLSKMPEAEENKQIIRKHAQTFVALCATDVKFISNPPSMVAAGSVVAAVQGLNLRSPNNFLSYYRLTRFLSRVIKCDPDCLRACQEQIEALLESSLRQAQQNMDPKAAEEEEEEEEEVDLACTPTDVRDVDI

| IC50 [nM] | SMILES |
| --- | --- |
| 3650 | Cn1cnc(S(=O)(=O)Nc2ccc(-c3ccc4c(NC(=O)c5ccsc5)n[nH]c4c3F)cc2)c1 [Example 39, Thiophene-3-carboxylic acid{7-fluoro-6[4-(1-methyl-1H-imidazole-4-sulfonylamino)-phenyl]-1H-indazol-3-yl}-amide] |
| 419 | O=C(Nc1n[nH]c2c(F)c(-c3ccc(NS(=O)(=O)c4cccc(Cl)c4)cc3)ccc12)c1ccsc1 [Example 38, Thiophene-3-carboxylic acid{6-[4-(3-chloro-benzenesulfonyl-amino)phenyl]-7-fluoro-1H-indazol-3-yl}-amide] |
| 51 | O=C(Nc1n[nH]c2c(F)c(-c3ccc(NS(=O)(=O)c4ccccc4Cl)cc3)ccc12)c1ccsc1 [Example 37, Thiophene-3-carboxylic acid{6-[4-(2-chloro-benzenesulfonyl-amino)phenyl]-7-fluoro-1H-indazol-3-yl}-amide] |
| 3600 | O=C(Nc1n[nH]c2c(F)c(-c3ccc(NS(=O)(=O)C4CC4)cc3)ccc12)c1ccsc1 [Example 36, Thiophene-3-carboxylic acid{6-[4-cyclo-propanesulfonyl-aminophenyl)-7-fluoro-1H-indazol-3-yl}-amide] |
| 2090 | CS(=O)(=O)Nc1ccc(-c2ccc3c(NC(=O)c4ccsc4)n[nH]c3c2F)cc1 [Example 34, Thiophene-3-carboxylic acid[7-fluoro-6-(4-methanesulfonyl-aminophenyl)-1H-indazol-3-yl]-amide] |

The remaining lines, values behind:

| SMILES | IC50 [nM] |
| --- | --- |
| O=C(Nc1n[nH]c2c(F)c(-c3ccc(NS(=O)(=O)c4cccc5ccccc45)cc3)ccc12)c1ccsc1 [Example 30, Thiophene-3-carboxylic acid{7-fluoro-6-[4-(naphthalene-1-sulfonylamino)-phenyl]-1H-indazol-3-yl}-amide] | 490 |
| O=C(Nc1n[nH]c2c(F)c(-c3ccc(NS(=O)(=O)c4cccs4)cc3)ccc12)c1ccsc1 [Example 31, Thiophene-3-carboxylic acid{7-fluoro-6-[4-(thiophene-2-sulfonylamino)-phenyl]-1H-indazol-3-yl}-amide] | 730 |
| O=C(Nc1n[nH]c2c(F)c(-c3ccc(NS(=O)(=O)c4ccccc4)cc3)ccc12)c1ccsc1 [Example 32, Thiophene-3-carboxylic acid[6-(4-benzene-sulfonylamino-phenyl)-7-fluoro-1H-indazol-3-yl]-amide] | 747 |
| CC(=O)Nc1ccc(S(=O)(=O)Nc2ccc(-c3ccc4c(NC(=O)c5ccsc5)n[nH]c4c3F)cc2)cc1 [Example 33, Thiophene-3-carboxylic acid{6-[4-(4-acetyl-aminobenzene-sulfonylamino)-phenyl]-7-fluoro-1H-indazol-3-yl}-amide] | 1210 |
